Paper PMC4703387, “Identification of the Calmodulin-Binding Domains of Fas Death Receptor” (PLoS ONE, 2016)
Where no end group is shown, it is not given here.

Biological target: T1, Ca^2+/CaM (Homo sapiens, UniProt P0DP23)
T1 construct: made in house
Test: Gel filtration assay of Ca^2+/CaM-peptide complexes
Type: binding
Conditions: HiLoad Superdex 75 (10/300 GL), 50 mM Tris (pH 7.0), 100 mM NaCl, 5 mM CaCl2
Procedure: The mobility of Ca^2+/CaM complexes with Fas-Pep1 and Fas-Pep2 was analyzed by a gel filtration assay. […] Protein fractions were analyzed by SDS-PAGE. A low molecular weight calibration kit (GE Healthcare) was used to determine the approximate molecular weight of complexes.
Fas-Pep2 has been expressed and purified as a fusion protein with SUMO (see Materials and Methods). Because of some technical difficulties during purification of a recombinant peptide, a synthetic Fas-Pep1 was used in this study. The solution properties of Fas-Pep1 and Fas-Pep2 and their complexes with Ca^2+/CaM were initially analyzed with size exclusion chromatography assay. Samples were run on a size exclusion column (Superdex 75) under identical buffer conditions. Sample concentrations were at ~50–100 μM. […] Ca^2+/CaM complexes with Fas-Pep1 and Fas-Pep2 prepared at 1:1 stoichiometry eluted at 11.3 and 11.2 mL, respectively (Fig 3A). […] The formation of complexes was confirmed by SDS-PAGE (Fig 3B). […] As we and others have shown previously, Ca^2+/CaM elutes at a smaller than expected volume due to its elongated dumbbell shape.[32, 42, 43]

- elution volume, free (~50–100 μM): 15.2 mL
- elution volume of complex with Ca^2+/CaM (prepared at 1:1 stoichiometry): 11.2 mL
Sequence: VQDTAEQKVQLLRNWHQLHGKKEAYDTLIKDLKKANLC [Fas-Pep2]
